Patent publication US20250179187A1, “ANTI PD-L2 ANTIBODY” (REJUVERON SENESCENCE THERAPEUTICS AG, priority 2022, published 2025)

Test system: PyMT spontaneous tumors
Test: Spontaneous mouse PyMT breast tumor model with tumor immunostaining
Assay type: in vivo
Settings: immunohistochemistry; antibody co-treated with doxorubicin vs Vehicle or Doxorubicin+mIgG1 (p<0.05)
Description: Hemizygous transgenic PyMT mice were allowed to develop tumors to an average size of around 200 cubic millimeters, usually around 9 weeks, at which time treatment was initiated, with N=3-5 per treatment group. Doxorubicin (Aurovitas) was administered intraperitoneally once per week at 4 mg/kg and antibodies were administered every three days at a dose of 10 mg/kg during four weeks or 3 mg/kg where noted. Vehicle-treated animals received only vehicle solvent for doxorubicin as a no-treatment control. Tumors were measured with a standard caliper once per week. At the end of the study, tumors were resected and further analyzed by immunohistochemistry. […]
For double SA-beta-galactosidase/PD-L2 staining, following resection, tumors were fixed in 2% paraformaldehyde and 0.2% glutaldehyde in PBS for 2 hours at room temperature. […] To quantify the number of cells double positive for SA-beta-galactosidase and PDL2, 3 random fields from 2 mammary glands from each animal in each treatment group was analyzed with Image J software. Staining for CD3, CD4 and CD8 was also carried out by standard immunohistochemistry techniques on paraffin-embedded material and quantified according to pixel density using Image J software.

In the case of COc1cccc2c1C(=O)c1c(O)c3c(c(O)c1C2=O)C[C@@](O)(C(=O)CO)C[C@@H]3O[C@H]1C[C@H](N)[C@H](O)[C@H](C)O1 [doxorubicin, reference compound], the “cells double-positive for PD-L2 and SA-βGal in PyMT tumors” value was “significantly induces double-positive cells”.
